US20260271928A1, “CONTROL OF PESTS RESISTANT TO INSECTICIDES” (Syngenta Crop Protection Ag, priority 2023, published 2026)

Tested on: Plutella xylostella
Experiment: Plutella xylostella (diamond back moth), larvae, feeding/contact (sPLU)
Format: in vivo
Conditions: sensitive strain, L3 larvae on Chinese cabbage, assessed 4 days after infestation; 0 = BP80 >200 ppm
Experimental: (§1) Plutella xylostella (Diamond Back Moth), Larvae, Feeding/Contact (sPLU) Chinese cabbage plants were treated with the diluted test solutions in a spray chamber. After drying, the leaves were cut off and placed in petri dishes with wetted filter paper. One day after treatment, the leaves were infested with 10 Plutella xylostella larvae (L3). Samples were assessed 4 days after infestation for mortality and growth regulation.

`CCS(=O)(=O)c1c(N2Cc3ncc(C(F)(F)F)cc3C2=O)nc(-c2ccc(C3(C#N)CC3)cc2)n1C` [P77, 1-[4-[5-ethyl-sulfonyl-1-methyl-4-[5-oxo-3-(trifluoromethyl)-7H-pyrrolo[3,4-b]pyridin-6-yl]imidazol-2-yl]phenyl]cyclopro-panecarbonitrile] was tested, and the “pBP80 s-PLU” value was 5.8.

Tested on: Resistant Nilaparvata lugens
Experiment: Resistant Nilaparvata lugens (rNIL)
Format: in vivo
Conditions: collected 2005, Karnataka, India
Experimental: Rice plants were treated with the diluted test solutions in a spray chamber. After drying, plants were infested with ~20 Nilaparvata lugens nymphs (N5). 7 days after the treatment samples were assessed for mortality. The adults were then removed and 15 days after the treatment samples were assessed for effect on F1 generation.
Resistant Nilaparvata lugens (rNIL)
Originally collected from Hosa-Hally, Karnataka district, India in 2005.

`CN1COCN(Cc2cnc(Cl)s2)/C1=N\[N+](=O)[O-]` [Thiamethoxam] and `CN/C(=N\[N+](=O)[O-])NCc1cnc(Cl)s1` [clothianidin] are the same in “resistance of the rNIL strain to the insecticide” value: 200 fold for the first, 200 fold for the second.

For `CCN(Cc1ccc(Cl)nc1)/C(=C/[N+](=O)[O-])NC` [nitenpyram], the “resistance of the rNIL strain to the insecticide” value was 30 fold.

Target: T1, vesicular acetylcholine transporter (VAChT) (Lucilia sericata, UniProt Z9IC98WFD0)
T1 sequence (Z9IC98WFD0 1-593): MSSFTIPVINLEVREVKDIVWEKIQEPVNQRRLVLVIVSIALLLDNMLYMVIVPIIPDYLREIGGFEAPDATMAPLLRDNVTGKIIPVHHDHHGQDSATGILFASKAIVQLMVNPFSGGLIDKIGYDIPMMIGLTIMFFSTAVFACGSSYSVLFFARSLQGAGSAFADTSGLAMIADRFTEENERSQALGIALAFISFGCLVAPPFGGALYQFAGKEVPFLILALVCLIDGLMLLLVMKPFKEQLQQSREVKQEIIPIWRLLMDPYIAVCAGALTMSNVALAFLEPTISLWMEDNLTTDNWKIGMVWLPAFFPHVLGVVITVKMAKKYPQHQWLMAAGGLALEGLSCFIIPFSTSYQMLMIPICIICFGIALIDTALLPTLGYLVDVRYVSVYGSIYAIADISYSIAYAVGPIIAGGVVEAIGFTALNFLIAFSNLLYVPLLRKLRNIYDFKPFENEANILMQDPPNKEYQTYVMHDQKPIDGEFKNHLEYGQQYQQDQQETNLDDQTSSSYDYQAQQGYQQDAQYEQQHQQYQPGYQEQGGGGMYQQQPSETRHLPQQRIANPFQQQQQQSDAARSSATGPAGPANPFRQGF
Experiment: [3H]-A1 radioligand binding and competitive displacement, Lucilia sericata head membrane
Conditions: Lucilia head membrane, 9 nM [3H]-A1; read-out: Affinity at the [3H]-A1 binding site, competitive displacement
Experimental: Methods herein were generally adapted from this publication.
Binding of [^3H]-A1 was measured using Lucilia sericata head membrane suspended in 50 mM Tris HCL buffer (pH7.4) containing 120 mM NaCl, and 100 mM EDTA, at a protein concentration of 1 mg/ml for dispensing into 96 well plates to give 50 μg protein per well. [^3H]-A1 was added to plates as a 37 MBq/ml ethanol stock dissolved in 2.2 ml assay buffer to give an approximate final well concentration of 9 nM. Test compounds were incubated at 25° C. for 90 min with 9 nM [^3H]-A1 (or a range of concentrations for saturation analysis) at either 8 rates (where prepared manually) or 6 or 10 rates where prepared using robotics. The binding incubation was terminated by vacuum filtration through glass fibre filter mats (PerkinElmerFilterMat A, Seer Green, UK), pre-treated with 0.5% polyethyleneimine and mounted on a Tomtec cell harvester. The filters were then washed rapidly with ice-cold water, dried and bound radioactivity measured using an EG&GWallac betaplate scintillation counter after impregnating the filter with solid scintillant (PerkinElmer MeltiLex). Non specific binding was subtracted from the counts at each data point to give the specific binding. The amount of displacement was calculated as a % of the control and the IC50 calculated from a curve fitted using a single-exponential algorithm.
Data was fitted with a single-exponential model.
To identify the insecticidal target-protein for alkylysulfones we examined the ability of a range of ligands with identified target proteins to displace [^3H]-A1 from its site on Lucilia membranes (see Table X3).

First: CCS(=O)(=O)c1cc(C(F)(F)F)cnc1-c1nc2cc(C(F)(F)F)ncc2n1C [A2]
Second: CCS(=O)(=O)c1cc(C(F)(F)F)cnc1-c1nc2cc(C(F)(F)F)cnc2n1C [A3]
The IC50 of the first is 3.9-fold higher: 39 nM for the first, 10 nM for the second. The second is the more potent here.

For `CCS(=O)(=O)c1cc(C(F)(F)F)cnc1-c1nnc(-c2cc(C(F)(F)F)ccn2)n1C` [C1], the IC50 was 6.3 nM.

Same assay, conditions: Lucilia membranes; ligands with identified target proteins

With `Cc1ccc(/N=C/N(C)/C=N/c2ccc(C)cc2C)c(C)c1` [Amitraz] the “[3H]-A1 displacement IC50” value was “Inactive or IC50>”.
In the case of `Cc1cc(Cl)ccc1N=CN(C)C` [Chlordimeform], the “[3H]-A1 displacement IC50” value is reported as “Inactive or IC50>”.

Same assay, conditions: Lucilia membranes; ligands with identified target proteins; read-out: [3H]-A1 displacement IC50

First: O=C(c1ccnc(Cl)c1)N1CC2(CCN(C/C=C/c3ccc(Cl)cc3)CC2)c2cc(F)ccc21 [5-F-CASPP]
Second: CNC(=O)O/N=C/C(C)(C)SC [Aldicarb]
The IC50 of the first is lower: 2.3 nM for the first, over 52600 nM for the second. The first is the more potent here.

First: Nc1cccc2c1CC(N1CCC(c3ccccc3)CC1)C(O)C2 (centres unmarked) [Aminobenzovesamicol]
Second: CCCCCC[C@H]1C(=O)O[C@H](C)[C@H](NC(=O)c2cccc(NC=O)c2O)C(=O)O[C@@H](C)[C@@H]1OC(=O)CC(C)C [Antimycin A1]
The IC50 of the first is lower: 17.6 nM for the first, over 18200 nM for the second.

`CNC(=O)c1cc(Cl)cc(C)c1NC(=O)c1cc(Br)nn1-c1ncccc1Cl` [Chlorantraniliprole] and `CNC(=O)c1cc(C#N)cc(C)c1NC(=O)c1cc(Br)nn1-c1ncccc1Cl` [Cyantraniliprole] cannot be ordered by IC50: over 20800 nM for the first, over 21200 nM for the second.

`COC(=O)C12Cc3cc(Cl)ccc3C1=NN(C(=O)Nc1ccc(OC(F)(F)F)cc1)CO2` (centres unmarked) [DCJW] and `ClC1=C(Cl)[C@]2(Cl)[C@@H]3[C@@H]4C[C@@H]([C@H]5O[C@@H]45)[C@@H]3[C@@]1(Cl)C2(Cl)Cl` [Dieldrin] cannot be ordered by IC50: over 21300 nM for the first, over 26500 nM for the second.

`ClC1=C(Cl)C2(Cl)C3C4CC(C5OC45)C3C1(Cl)C2(Cl)Cl` (centres unmarked) [Endrin] and `CC(C)C(C(=O)OC(C#N)c1cccc(Oc2ccccc2)c1)c1ccc(Cl)cc1` (centres unmarked) [Fenvalerate] cannot be ordered by IC50: over 26500 nM for the first, over 23900 nM for the second.

`N#Cc1nn(-c2c(Cl)cc(C(F)(F)F)cc2Cl)c(N)c1[S+]([O-])C(F)(F)F` (centres unmarked) [Fipronil] and `CC(C)(C)N(NC(=O)c1ccc(Cl)cc1)C(=O)c1ccccc1` [Halofenozide] cannot be ordered by IC50: over 22900 nM for the first, over 30300 nM for the second.

`O=[N+]([O-])NC1=NCCN1Cc1ccc(Cl)nc1` [Imidacloprid] and `COC(=O)N(C(=O)N1CO[C@@]2(C(=O)OC)Cc3cc(Cl)ccc3C2=N1)c1ccc(OC(F)(F)F)cc1` [Indoxacarb] cannot be ordered by IC50: over 19800 nM for the first, over 19000 nM for the second.

`CCN(CC)c1nc(C)cc(OP(=S)(OC)OC)n1` [Pirimiphos-methyl] and `COC1CCC2(CC1)NC(=O)C(c1cc(C)ccc1C)=C2O` (centres unmarked) [Spirotetramat enol] cannot be ordered by IC50: over 32800 nM for the first, over 33200 nM for the second.

Compared with `CCc1ccc(C(=O)NN(C(=O)c2cc(C)cc(C)c2)C(C)(C)C)cc1` [Tebufenozide], `CC(C)=CC1C(C(=O)OCN2C(=O)C3=C(CCCC3)C2=O)C1(C)C` (centres unmarked) [Tetramethrin] is lower in IC50: over 28400 nM for the first, 17400 nM for the second.

Compared with Emamectin Benzoate, Spinosad is higher in IC50: 11300 nM for the first, over 13700 nM for the second. The first is the more potent here.

Same assay, conditions: Lucilia sericata head membrane, 9 nM [3H]-A1; read-out: IC50 Displacement Values of [3H]-A1

Going from `CCS(=N)(=O)c1cc(C(F)(F)F)cnc1-c1nc2cc(C(F)(F)F)cnc2n1C` (centres unmarked) [VAChT-1] to `CC[S@](=N)(=O)c1cc(OC(C)(C)C#N)cnc1-c1nc2cc(C(F)(F)F)cnc2n1C` [VAChT-27], the IC50 falls from 100 nM to 25 nM (4-fold).

Going from `CCS(=O)(=O)c1cc(C2(C#N)CC2)cnc1-c1nc2cc(C(F)(F)F)cnc2n1C` [VAChT-7] to `CC[S@@](=N)(=O)c1cc(C2(C#N)CC2)cnc1-c1nc2cc(C(F)(F)F)ncc2n1C` [VAChT-34], the IC50 rises from 8 nM to 40 nM (5-fold). The first is the more potent here.

Going from `CCS(=O)(=O)c1cccnc1-c1nc2cc(S(=O)(=O)C(F)(F)F)ccc2o1` [VAChT-13] to `CCS(=O)(=O)c1ccc(-n2cncn2)nc1-c1nc2cc(C(F)(F)F)cnc2n1C` [VAChT-16], the IC50 rises from 2 nM to 10 nM (5-fold).

Compared with `CCS(=O)(=O)c1c(-c2nc3cc(C(F)(F)F)cnc3n2C)nc2ccc(C(F)(F)F)cn12` [VAChT-19], `CCS(=N)(=O)c1cc(C2(C#N)CC2)cnc1-c1nc2cc(C(F)(F)F)nnc2n1C` (centres unmarked) [VAChT-35] is 40-fold higher in IC50: 2 nM for the first, 79 nM for the second.

In the case of `CCS(=O)(=O)c1cc(C2(C#N)CC2)cnc1-c1nc2cc3c(cc2n1C)OC(F)(F)O3` [VAChT-20], the IC50 is reported as 4 nM.

Same assay, conditions: read-out: Affinity at the [3H]-A1 binding site, competitive displacement; Lucilia head membrane, 9 nM [3H]-A1

For `CCS(=O)(=O)c1cccnc1-c1nc2cc(S(=O)(=O)C(F)(F)F)ccc2o1` [B1], the IC50 was 2 nM.

Same assay, conditions: read-out: [3H]-A1 displacement IC50

Molecule `CN/C(=N/CC1CCOC1)N[N+](=O)[O-]` (centres unmarked) [Dinotofuran] has an IC50 of over 49500 nM.

Tested on: Resistant Myzus persicae
Experiment: Resistant Myzus persicae (rMP)
Format: in vivo
Conditions: field-collected 2009, Southern France
Experimental: Pepper plants were infested with an Myzus persicae population of mixed ages. One day after infestation the plants were treated with the diluted test solutions in a spray chamber. 5 days after treatment samples were assessed for mortality.

With `CC1(C)[C@H](C(=O)O[C@H](C#N)c2cccc(Oc3ccccc3)c2)[C@@H]1/C=C(\Cl)C(F)(F)F` (racemic) [Lambda-cyhalothrin] the “resistance of the rMP population to the insecticide” value was over 5000 fold.

Tested on: Resistant Bemisia tabaci
Experiment: Resistant Bemisia tabaci (rBT)
Format: in vivo
Conditions: biotype Q, field-collected 2000, Almeria, Spain
Experimental: Cotton leaf discs were placed upside down in petri dishes on water agar and treated with the diluted test solutions in a spray chamber. After drying, leaf discs were infested with 10 adult Bemisia tabaci. Dishes were covered with a fabric filter and sealed with a perforated plastic lid. 4 days after treatment samples were assessed for mortality.
Resistant Bemisia tabaci (rBT)
Biotype Q originally field-collected in 2000 from Almeria, Spain. […] The strain carried the mutation L925I in the voltage-gated sodium channel conferring resistance to pyrethroids. It also had higher expression of the p450 CYP6CM1 conferring metabolic resistance to neonicotinoids.

In the case of `CC1(C)[C@H](C(=O)O[C@H](C#N)c2cccc(Oc3ccccc3)c2)[C@@H]1/C=C(\Cl)C(F)(F)F` (racemic) [Lambda-cyhalothrin], the “resistance of the rBT population to the insecticide” value is reported as 40 fold.

Tested on: Resistant Plutella xylostella
Experiment: Resistant Plutella xylostella (rPLU)
Format: in vivo
Conditions: collected 2013, Changhua, Taiwan
Experimental: as §1, with “Chinese” for “Plutella xylostella (Diamond Back Moth), Larvae, Feeding/Contact (sPLU) Chinese”
Resistant Plutella xylostella (rPLU)
A number of target-sites mutations were identified in this strain which confer resistance to pyrethroids (L1014F, T929I), organophosphates and carbamates (mAChE: A298S and G324A), and organochlorines (rdl: A298S), and diamides (ryr: G4546E).

`CC1(C)[C@H](C(=O)O[C@H](C#N)c2cccc(Oc3ccccc3)c2)[C@@H]1/C=C(\Cl)C(F)(F)F` (racemic) [Lambda-cyhalothrin] was tested, and the “resistance of the rPLU strain to the insecticide” value (shortened to “resistance of the rPLU strain”) was over 800 fold.
With abamectin the “resistance of the rPLU strain” value was over 200 fold.

Compared with `CCOP(=S)(OCC)Oc1nc(Cl)c(Cl)cc1Cl` [chlorpyrifos], `Cc1cc(C(F)(C(F)(F)F)C(F)(F)F)ccc1NC(=O)c1cccc(I)c1C(=O)NC(C)(C)CS(C)(=O)=O` [flubendiamide] is higher in “resistance of the rPLU strain” value: 100 fold for the first, 300 fold for the second.

Same assay, conditions: resistant strain, L3 larvae on Chinese cabbage, assessed 4 days after infestation; 0 = BP80 >200 ppm

For `CCS(=O)(=O)c1c(N2Cc3ncc(C(F)(F)F)cc3C2=O)nc(-c2ccc(C3(C#N)CC3)cc2)n1C` [P77, 1-[4-[5-ethyl-sulfonyl-1-methyl-4-[5-oxo-3-(trifluoromethyl)-7H-pyrrolo[3,4-b]pyridin-6-yl]imidazol-2-yl]phenyl]cyclopro-panecarbonitrile], the “pBP80 r-PLU” value was 5.8.
